Results taken from PMC9465178, “Cinnamaldehyde derivatives act as antimicrobial agents against Acinetobacter baumannii through the inhibition of cell division” (Frontiers in Microbiology, 2022).
≈ marks a conversion by molar mass, not a printed value. Entries after “also recorded” stand apart in the source; their conditions may differ.

Experiments:
[1] = system: AbFtsZ; test: AbFtsZ polymerization, 90° light scattering; assay type: biochemical, Acinetobacter baumannii; conditions: test compound at 128 μg/mL, AbFtsZ 0.15 mg/mL, 1 mM GTP, 8°C
Experimental: Effects on inhibition of the cinnamaldehyde derivatives on AbFtsZ polymerization were analyzed using the assay as previously described ([Chai et al., 2020]) with the following modifications. A reaction mix was prepared in a cold Eppendorf® tube where AbFtsZ (0.15 mg/mL) was mixed with the test compound at the desired concentration and a polymerization buffer diluted from a double strength buffer to give a final concentration of 25 mM PIPES pH 6.8, 50 mM KCl and 10 mM MgCl2. The reaction mix was prepared such that the DMSO concentration remained constant at 2% (v/v). The mix was then added into a quartz cuvette (PerkinElmer®, United Kingdom), and placed in a PerkinElmer® LS 55 fluorometer under the fixed condition of excitation/emission at 350/350 nm, slit width < 2 nm, a 1 s read interval. The temperature was calibrated to remain constant at 8°C. The fluorescence was followed for 300 sec to allow equilibration, then polymerization was initiated with the addition of 1 mM GTP. A separate negative control was prepared where 1 mM GDP was added instead of the GTP. The reaction was followed for 600 s.
(A–F) AbFtsZ (0.15 mg/mL) was pre-incubated in polymerization buffer (25 mM PIPES pH 6.8, 50 mM KCl and 10 mM MgCl2) together with the test compound at 128 μg/mL for 300 s. Polymerization was then initiated with the addition of 1 mM GTP. The fluorescence was measured as a function of time at excitation and emission wavelengths of A350 and A350 nm, respectively, and a slit width of <2 nm. The blue line in each panel indicates the addition of 2.5% (v/v) DMSO, the pink line indicates the test compound tested at 128 μg/mL and the gray line represents the addition of 1 mM GDP (as negative control) instead of GTP.

[2] = system: Escherichia coli WT BW 25113; test: Antibacterial activity (MIC), microbroth dilution; assay type: cell-based; conditions: Escherichia coli, WTBW25113, read-out: Antibacterial activity (MIC)
Experimental: (§1) Reference bacterial strains were obtained from the American Type Culture Collection (ATCC). Vancomycin resistant Enterococcus faecium (VRE 734, wastewater isolate from the Venter Laboratory Collection) was isolated on Bile Esculin agar (Oxoid, Australia) containing 6 μg/mL vancomycin and identified using MALDI-TOF mass spectrometry (Bruker, Preston, Victoria, Australia, Australian Center for Antimicrobial Resistance Ecology). The Pseudomonas aeruginosa WT PAO1 and Escherichia coli with deletions of both acrA and acrB genes encoding drug efflux pumps were obtained from the Venter laboratory stock ([Welch et al., 2010]). The protocol for microbial growth was adopted from the European Committee on Antimicrobial Susceptibility Testing (EUCAST) ([European Committee for Antimicrobial Susceptibility Testing, 2016]).
(§2) Non-fastidious bacteria and clinical isolates were maintained in Mueller Hinton (MH) broth (Acumedia, United Kingdom) supplemented with 15% (v/v) glycerol (Chem-Supply, Australia), cultured on Mueller Hinton (MH) agar (Acumedia, United Kingdom) plated and incubated at 37°C. Fastidious bacteria were maintained in Brain Heart Infusion (BHI) broth (Acumedia, United Kingdom) supplemented with 15% (v/v) glycerol at −80°C. The fastidious bacteria were cultured on MH agar plates supplemented with 5% (v/v) lysed horse blood and 3% (v/v) fetal bovine serum and incubated at 30°C in the presence of 5% CO2. Drug susceptibility assays were carried out with the non-fastidious cultures grown in cation-adjusted Mueller Hinton (CaMH) broth (Becton Dickinson, France). Streptococcus pyogenes was grown in CaMH broth supplemented with 5% (v/v) lysed horse blood and 3% (v/v) fetal bovine serum whereas Enterococcus faecium was grown in BHI broth.
(§3) The minimum inhibitory concentrations (MICs) for all six compounds were determined using the microbroth dilution protocol as per EUCAST with an inoculum of approximately […] in an exponential growth phase ([European Committee for Antimicrobial Susceptibility Testing, 2016]). Bacterial suspension, 100 μL/well, was added to 100 μL/well of drug dilutions, then incubated for 18 h at 37°C. Fastidious bacterial suspensions were instead incubated at 30°C in the presence of 5% CO2. Bacterial growth was assessed by measuring the change in A600 nm between time 0 and 18 h (Cytation5® Cell Imaging Multi-Mode Reader, Bio-Tek®). Levofloxacin was used as the positive control. Assays were completed in duplicate in at least three independent experiments.

[3] = system: Enterobacter aerogenes ATCC 13408; test: Antibacterial activity (MIC), microbroth dilution; assay type: cell-based; conditions: Klebsiella aerogenes, ATCC13408, read-out: Antibacterial activity (MIC)
Experimental: as §1, §2, §3

[4] = system: Streptococcus pneumoniae (type 3, mucoid strain) ATCC 6303; test: Antibacterial activity (MIC), microbroth dilution; assay type: cell-based; conditions: Streptococcus pneumoniae, ATCC6303, read-out: Antibacterial activity (MIC)
Experimental: as §1, §2, §3

[5] = system: Klebsiella pneumoniae ATCC 13883; test: Antibacterial activity (MIC), microbroth dilution; assay type: cell-based; conditions: Klebsiella pneumoniae, ATCC13883, read-out: Antibacterial activity (MIC)
Experimental: as §1, §2, §3

[6] = system: HepG2 (ATCC HB-8065) cells; test: RealTime-Glo MT cell viability assay; assay type: cell-based; conditions: 24 h
Experimental: The effects of the cinnamaldehyde analogs were analyzed for off-target effects on mammalian cells using the protocol as previously described ([Chai et al., 2020]) with the following modifications. In vitro cytotoxicity was assessed in HepG2 (ATCC HB-8065) cells using the RealTime-Glo™ MT Cell Viability Assay Kit (Promega) as described previously ([Wang et al., 2017]). The LXC compounds were tested at 1 × and 2 × MIC using a final DMSO concentration of 2% (v/v) in the assay. […] The luminescence signal was read at 5-min intervals over 24 h in a Cytation5® Cell Imaging Multi-Mode Reader (Bio-Tek®), at 37°C in the presence of 5% CO2.
FIGURE 8 The LXC compounds are generally non-toxic at a concentration of 1 × MIC. (A–F) Real-time liver cell viability measurements for HepG2 after treatment with 1 × (pink line) and 2 × (brown line) MIC values. […] Cell viability was measured every 5 min for 24 h at 37°C and 5% CO2 on a Cytation5® Cell Imaging Multi-Mode Reader using the RealTime-Glo™ MT Cell Viability Assay reagent. The results are presented in mean ± SEM (hourly SEM data was presented).

`Cc1nc2ccccc2n1C(=O)/C=C/c1ccccc1` [Compound 1] was tested, and the “Inhibition of AbFtsZ polymerization” value [1] was “strongest activity observed with compound 5, followed by compounds 1 and 6”, the MIC [2] was greater than 256 µg/mL and the MIC [3] was greater than 256 µg/mL. The MIC [4] was 256 µg/mL (≈ 976 µM), the MIC [5] was greater than 256 µg/mL and the “Cytotoxicity, HepG2 cell viability” value ([6]; 2 × MIC) was “cytotoxicity was also observed”.

In the case of `Cc1nc2ccccc2n1C(=O)/C=C/c1ccc(F)cc1` [Compound 2], the MIC [2] is reported as greater than 256 µg/mL, the MIC [3] is reported as greater than 256 µg/mL and the MIC [4] is reported as 256 µg/mL (≈ 913 µM). The MIC [5] was greater than 256 µg/mL and the “Cytotoxicity, HepG2 cell viability” value ([6]; 2 × MIC) was “cytotoxicity was also observed”.

With `Cc1nc2ccccc2n1C(=O)/C=C/c1ccc(Cl)cc1` [Compound 3] the MIC [2] was greater than 256 µg/mL, the MIC [3] was greater than 256 µg/mL and the MIC [4] was 256 µg/mL (≈ 863 µM). For the same molecule, the MIC [5] was greater than 256 µg/mL and the “Cytotoxicity, HepG2 cell viability” value ([6]; 2 × MIC) was “cytotoxicity was also observed”.

With `Cc1nc2ccccc2n1C(=O)/C=C/c1ccc(Br)cc1` [Compound 4] the MIC [2] was greater than 256 µg/mL, the MIC [3] was greater than 256 µg/mL and the MIC [4] was 256 µg/mL (≈ 750 µM). The MIC [5] was greater than 256 µg/mL and the “Cytotoxicity, HepG2 cell viability” value ([6]; 2 × MIC) was “devoid of undesirable toxicity”.

For `COc1ccc(/C=C/C(=O)n2c(C)nc3ccccc32)cc1OC` [Compound 5], the “Inhibition of AbFtsZ polymerization” value [1] was “strongest activity”, the MIC [2] was greater than 256 µg/mL and the MIC [3] was greater than 256 µg/mL. The MIC [4] was 256 µg/mL (≈ 794 µM), the MIC [5] was greater than 256 µg/mL and the “Cytotoxicity, HepG2 cell viability” value ([6]; 1 × MIC) was “displayed cytotoxicity”.

In the case of `Cc1nc2ccccc2n1C(=O)/C=C/c1ccc(Cl)cc1Cl` [Compound 6], the “Inhibition of AbFtsZ polymerization” value [1] is reported as “strongest activity observed with compound 5, followed by compounds 1 and 6”, the MIC [2] is reported as greater than 256 µg/mL and the MIC [3] is reported as greater than 256 µg/mL. The MIC [4] was 256 µg/mL (≈ 773 µM), the MIC [5] was greater than 256 µg/mL and the “Cytotoxicity, HepG2 cell viability” value ([6]; 2 × MIC) was “devoid of hemolytic activity and cytotoxicity against mammalian cells in vitro; also recorded: devoid of undesirable toxicity”.
